Starred links: 1 amine or outer side, 2 acyl side, 3 side chain; linkers in the order of their positions; H or OH if unused. Positions of bridges follow the written chain, without caps; N, C: chain ends. Non-standard residues stand in square brackets, D forms with d. Residues, ends and D or L forms follow the SMILES beside them. Adda = CO[C@@H](Cc1ccccc1)[C@@H](C)/C=C(C)/C=C/[C@H](N[*:1])[C@H](C)C(=O)[*:2]; dAsp(3S-Me) = C[C@H](C(=O)[*:3])[C@@H](N[*:1])C(=O)[*:2]; d(γGlu) = O=C(O)[C@@H](CCC(=O)[*:2])N[*:1]; NMeDha = C=C(NC)C(=O)O
Tests used:
[1] = Inhibition of PP2A (unknown origin)
[2] = Aqueous stability of compound assessed as compound remaining measured at 240 mins by HPLC assay; type: physicochemical; settings: aqueous solution, read-out: Stability

Row | Compound | IC50 [1] | remaining at 4 h [2]
1 | C=C1C(=O)N[C@H](C)C(=O)N[C@@H](CC(C)C)C(=O)N[C@@H](C(=O)O)[C@H](C)C(=O)N[C@@H](CCCNC(=N)N)C(=O)N[C@@H](/C=C/C(C)=C/[C@H](C)[C@H](Cc2ccccc2)OC)[C@H](C)C(=O)N[C@@H](C(=O)O)CCC(=O)N1C [MICROCYSTIN-LR] (R[Adda][d(γGlu)][NMeDha][dA]L[dAsp(3S-Me)]-OH; lactam N-7) | 0.04 nM | –
2 | C=C1[C@@H](O)[C@@H]2O[C@]3(CC[C@H](/C=C/[C@@H](C)[C@@H]4CC(C)=C[C@@]5(O[C@H](C[C@@](C)(O)C(=O)O)CC[C@H]5O)O4)O3)CC[C@H]2O[C@@H]1[C@@H](O)C[C@H](C)[C@H]1O[C@@]2(CCCCO2)CC[C@H]1C [OKADAIC ACID] | 0.1 nM | –
3 | O=C(O)[C@@H]1[C@H](C(=O)N2CCc3ccccc32)[C@H]2CC[C@@H]1O2 | – | 52.8%
4 | C[C@@](O)(/C=C/[C@H]1CC=CC(=O)O1)[C@@H](C[C@@H](O)\C=C/C=C\C=C\CO)OP(=O)(O)O [FOSTRIECIN] | 1.5 nM | –
5 | O=C(Nc1ccccc1)[C@@H]1[C@H](C(=O)O)[C@H]2CC[C@@H]1O2 | – | 74.5%
6 | C/C=C1/C(=O)N[C@@H](C(=O)O)[C@H](C)C(=O)N[C@@H](CCCNC(=N)N)C(=O)N[C@@H](/C=C/C(C)=C/[C@H](C)[C@H](Cc2ccccc2)OC)[C@H](C)C(=O)N[C@@H](C(=O)O)CCC(=O)N1C [NODULARIN] | 0.3 nM | –
7 | O=C(O)[C@@H]1[C@H](C(=O)N2CC=CC2)[C@H]2CC[C@@H]1O2 | – | 35.7%
8 | O=C(O)[C@H]1[C@@H](C(=O)N2Cc3ccccc3C2)[C@@H]2CC[C@H]1O2 | – | 46.4%
9 | O=CN1CCN(C(=O)[C@@H]2[C@H](C(=O)O)[C@H]3CC[C@@H]2O3)CC1 | – | 80.3%
10 | CC1c2ccccc2CN1C(=O)[C@@H]1[C@H](C(=O)O)[C@H]2CC[C@@H]1O2 (stereo not given in full) | – | 71.8%

Reference: ChEMBL document CHEMBL5584313, “Design and Synthesis of 7-Oxabicyclo[2.2.1]heptane-2,3-dicarboxylic Acid Derivatives as PP5 Inhibitors To Reverse Temozolomide Resistance in Glioblastoma Multiforme” (J Med Chem, 2024)
